pIC50: −log10 of the molar value.
Tests used:
[1] = tested on: Human immunodeficiency virus; test: Antiviral activity against HIV; format: functional, organism-based
[2] = biological target: C-C chemokine receptor type 5 (Homo sapiens, UniProt P51681); test: Inhibition of RANTES
[3] = Metabolic stability in rat liver microsomes assessed as intrinsic clearance; format: ADME, Microsome
[4] = Oral bioavailability in dog at 5 mg/kg, po and 1 mg/kg, iv; format: ADME, organism-based, Canis lupus familiaris; settings: in vivo
[5] = Half life in dog at 1 mg/kg, iv; format: ADME, organism-based, Canis lupus familiaris; design: dose 1 mg/kg, route intravenous; settings: in vivo
[6] = (§1) Apparent permeability of the compound from apical to basolateral side in human Caco-2 cell membrane after 21 days; settings: Caco-2, Papp
Rattus norvegicus = test: Clearance in rat at 10 mg/kg, po and 1 mg/kg, iv; format: ADME, organism-based; settings: in vivo
[7] = Cmax in rat at 10 mg/kg, po and 1 mg/kg, iv; format: ADME, organism-based; settings: in vivo
[8] = Half life in rat at 1 mg/kg, iv; format: ADME, organism-based; design: dose 1 mg/kg, route intravenous; settings: in vivo
[9] = Oral bioavailability in rat at 10 mg/kg, po and 1 mg/kg, iv; format: ADME, organism-based; settings: in vivo
[10] = Metabolic stability in human liver microsomes assessed as intrinsic clearance; format: ADME, Microsome
[11] = biological target: Voltage-gated inwardly rectifying potassium channel KCNH2 (Homo sapiens, UniProt Q12809); test: Inhibition of human ERG
Chain of Voltage-gated inwardly rectifying potassium channel KCNH2 (Q12809 whole entry): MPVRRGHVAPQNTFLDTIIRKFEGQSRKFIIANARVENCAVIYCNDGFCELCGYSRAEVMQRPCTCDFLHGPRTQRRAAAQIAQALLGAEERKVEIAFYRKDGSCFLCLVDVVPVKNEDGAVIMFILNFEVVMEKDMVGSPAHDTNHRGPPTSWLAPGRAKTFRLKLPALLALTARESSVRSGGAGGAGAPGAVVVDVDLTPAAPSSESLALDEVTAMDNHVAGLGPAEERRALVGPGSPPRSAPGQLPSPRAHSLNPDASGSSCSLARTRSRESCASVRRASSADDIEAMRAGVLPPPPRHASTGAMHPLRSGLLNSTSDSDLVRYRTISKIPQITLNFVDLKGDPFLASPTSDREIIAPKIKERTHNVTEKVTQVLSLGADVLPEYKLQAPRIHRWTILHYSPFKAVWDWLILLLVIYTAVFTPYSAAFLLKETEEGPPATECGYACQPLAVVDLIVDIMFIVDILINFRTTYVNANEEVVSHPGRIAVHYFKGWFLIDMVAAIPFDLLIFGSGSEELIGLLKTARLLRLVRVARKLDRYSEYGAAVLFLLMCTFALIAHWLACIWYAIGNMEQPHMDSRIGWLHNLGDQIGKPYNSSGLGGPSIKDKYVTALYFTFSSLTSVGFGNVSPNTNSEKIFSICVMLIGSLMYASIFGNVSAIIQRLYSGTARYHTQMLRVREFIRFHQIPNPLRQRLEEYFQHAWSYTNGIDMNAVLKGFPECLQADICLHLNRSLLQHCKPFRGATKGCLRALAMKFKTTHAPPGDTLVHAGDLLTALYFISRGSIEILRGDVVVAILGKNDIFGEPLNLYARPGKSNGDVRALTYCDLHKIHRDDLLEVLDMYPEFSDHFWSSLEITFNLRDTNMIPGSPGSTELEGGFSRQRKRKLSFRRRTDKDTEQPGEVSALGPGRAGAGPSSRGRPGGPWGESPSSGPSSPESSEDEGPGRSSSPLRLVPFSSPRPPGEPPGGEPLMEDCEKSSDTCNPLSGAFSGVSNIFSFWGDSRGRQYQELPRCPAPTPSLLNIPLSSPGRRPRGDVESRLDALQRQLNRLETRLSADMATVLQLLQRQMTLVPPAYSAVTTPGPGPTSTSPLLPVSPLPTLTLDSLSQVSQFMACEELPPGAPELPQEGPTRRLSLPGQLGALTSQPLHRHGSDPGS

[12] = Clearance in dog at 5 mg/kg, po and 1 mg/kg, iv; format: ADME, organism-based, Canis lupus familiaris; settings: in vivo
[13] = Cmax in dog at 5 mg/kg, po and 1 mg/kg, iv; format: ADME, organism-based, Canis lupus familiaris; settings: in vivo
[14] = Metabolic stability in dog liver microsomes assessed as intrinsic clearance; format: ADME, Canis lupus familiaris, Microsome
Caco-2 = test: as §1; settings: caco-2

Chain of C-C chemokine receptor type 5 (P51681 whole entry): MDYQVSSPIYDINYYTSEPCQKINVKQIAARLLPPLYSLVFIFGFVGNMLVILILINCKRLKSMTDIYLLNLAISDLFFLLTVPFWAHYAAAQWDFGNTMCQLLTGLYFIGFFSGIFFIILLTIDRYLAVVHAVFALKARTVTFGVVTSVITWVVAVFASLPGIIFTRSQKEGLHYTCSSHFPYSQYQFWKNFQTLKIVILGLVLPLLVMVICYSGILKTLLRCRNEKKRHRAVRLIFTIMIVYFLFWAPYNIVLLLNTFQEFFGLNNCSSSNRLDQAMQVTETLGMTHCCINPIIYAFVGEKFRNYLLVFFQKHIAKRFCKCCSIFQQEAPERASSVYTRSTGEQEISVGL

Row | SMILES | pIC50 ([1]; Human immunodeficiency virus 1) | pIC50 [2] | also measured
1 | Cc1ncnc(C)c1C(=O)N1C[C@H]2CN(CCC(c3ccccc3)C3CCN(CC(F)(F)F)CC3)C[C@H]2C1 (stereo not given in full) | 7.19 | 7.77 | 
2 | Cc1ncnc(C)c1C(=O)N1C[C@H]2CN(CCC(c3ccccc3)C3CN(S(=O)(=O)C4CC4)C3)C[C@H]2C1 (stereo not given in full) | 6.99 | 7.40 | 
3 | Cc1ncnc(C)c1C(=O)N1C[C@H]2CN(CCC(c3ccccc3)C3CN(CC(F)(F)F)C3)C[C@H]2C1 (stereo not given in full) |  | < 6.30 | 
4 | Cc1ncnc(C)c1C(=O)N1C[C@H]2CN(CCC(c3ccccc3)C3CCN(S(=O)(=O)C4CCCC4)CC3)C[C@H]2C1 (stereo not given in full) | 7.23 | 7.64 | 
5 | Cc1cc(=O)oc(C)c1C(=O)N1C[C@H]2CN(CCC(c3ccccc3)C3CCN(S(C)(=O)=O)CC3)C[C@H]2C1 (stereo not given in full) | 7.43 | 7.57 | 
6 | Cc1ncnc(C)c1C(=O)N1C[C@H]2CN(CCC(c3cccc(F)c3)C3CCN(S(=O)(=O)c4ccccc4)CC3)C[C@H]2C1 (stereo not given in full) | 8.22 | 7.42 | 
7 | Cc1ncnc(C)c1C(=O)N1C[C@H]2CN(CCC(c3cccc(F)c3)C3CCN(S(C)(=O)=O)CC3)C[C@H]2C1 (stereo in doubt; 43) |  | 7.49 | microsomal CLint [3]: 40 µL/min/mg; bioavailability [4]: 96%; half-life [5]: 4 h; pIC50 [1]: 7.77; Papp A→B [6]: 0.5 ×10⁻⁶ cm/s; clearance (Rattus norvegicus): 40 mL/min/kg; Cmax [7]: 110 ng/mL; half-life [8]: 0.37 h; bioavailability [9]: 6.6%; microsomal CLint [10]: 60 µL/min/mg; IC20 [11]: 15400 nM; clearance [12]: 31 mL/min/kg; Cmax [13]: 1300 ng/mL; clearance [14]: 18 µL/min/mg
8 | Cc1ncnc(C)c1C(=O)N1C[C@H]2CN(CCC(c3ccccc3)C3CCN(C(=O)CC(C)C)CC3)C[C@H]2C1 (stereo not given in full) |  | 7.17 | 
9 | Cc1ncnc(C)c1C(=O)N1C[C@H]2CN(CCC(c3ccccc3)C3CN(S(=O)(=O)C4CCCC4)C3)C[C@H]2C1 (stereo not given in full) | 7.51 | 7.66 | Papp A→B [6]: 1.4 ×10⁻⁶ cm/s
10 | Cc1ncnc(C)c1C(=O)N1C[C@H]2CN(CCC(c3cccc(F)c3)C3CN(S(=O)(=O)C4CC4)C3)C[C@H]2C1 (stereo not given in full) | 6.81 | 7.41 | 
11 | CCS(=O)(=O)N1CCC(C(CCN2C[C@@H]3CN(C(=O)c4c(C)ncnc4C)C[C@@H]3C2)c2ccccc2)CC1 (stereo not given in full) | 7.41 | 7.60 | 
12 | Cc1ncnc(C)c1C(=O)N1C[C@H]2CN(CCC(c3ccccc3)C3CN(S(=O)(=O)C(C)C)C3)C[C@H]2C1 (stereo not given in full) | 7.00 | 7.64 | 
13 | Cc1ncnc(C)c1C(=O)N1C[C@H]2CN(CCC(c3ccccc3)C3CCN(CC(F)F)CC3)C[C@H]2C1 (stereo not given in full) | 7.26 | 7.57 | 
14 | Cc1ncnc(C)c1C(=O)N1C[C@H]2CN(CCC(c3ccccc3)C3CN(C(=O)C4CCCC4)C3)C[C@H]2C1 (stereo not given in full) |  | 6.68 | 
15 | Cc1ncnc(C)c1C(=O)N1C[C@H]2CN(CCC(c3ccccc3)C3CN(S(C)(=O)=O)C3)C[C@H]2C1 (stereo not given in full) | < 6.20 | 7.28 | 
16 | Cc1ncnc(C)c1C(=O)N1C[C@H]2CN(CCC(c3ccccc3)C3CCN(S(C)(=O)=O)CC3)C[C@H]2C1 (stereo in doubt; 41) |  | 7.60 | pIC50 [1]: 7.38; Papp (Caco-2): 0.5 ×10⁻⁶ cm/s
17 | Cc1ncnc(C)c1C(=O)N1C[C@H]2CN(CCC(c3ccccc3)C3CCN(S(C)(=O)=O)CC3)C[C@H]2C1 (stereo in doubt; 42) |  | < 6.30 | pIC50 [1]: < 5.30
18 | Cc1ncnc(C)c1C(=O)N1C[C@H]2CN(CCC(c3cccc(F)c3)C3CCN(CC(F)F)CC3)C[C@H]2C1 (stereo not given in full) | 7.85 | 7.46 | 
19 | Cc1ncnc(C)c1C(=O)N1C[C@H]2CN(CCC(c3ccccc3)C3CCN(S(=O)(=O)CC(F)(F)F)CC3)C[C@H]2C1 (stereo not given in full) | 6.68 | 7.32 | 

Continued, in another order:

Row | pIC50 ([1]; Human immunodeficiency virus 1) | pIC50 [2] | SMILES | also measured
20 | 8.40 |  | Cc1cc(C#N)nc(C)c1C(=O)N1C[C@H]2CN(CCC(c3ccccc3)C3CCN(S(C)(=O)=O)CC3)C[C@H]2C1 (stereo not given in full) | 
21 | 7.05 | 7.46 | Cc1ncnc(C)c1C(=O)N1C[C@H]2CN(CCC(c3cc(F)cc(F)c3)C3CN(S(=O)(=O)C4CC4)C3)C[C@H]2C1 (stereo not given in full) | 
22 |  | 6.99 | COC(=O)N1CCC(C(CCN2C[C@@H]3CN(C(=O)c4c(C)ncnc4C)C[C@@H]3C2)c2ccccc2)CC1 (stereo not given in full) | 
23 | 7.32 | 7.33 | Cc1ncnc(C)c1C(=O)N1C[C@H]2CN(CCC(c3ccccc3)C3CCN(S(=O)(=O)C(C)C)CC3)C[C@H]2C1 (stereo not given in full) | 
24 | 7.15 | 7.57 | Cc1ncnc(C)c1C(=O)N1C[C@H]2CN(CCC(c3ccccc3)C3CCN(S(=O)(=O)C4CC4)CC3)C[C@H]2C1 (stereo not given in full) | 
25 |  | < 6.30 | Cc1ncnc(C)c1C(=O)N1C[C@H]2CN(CCC(c3ccccc3)C3CN(C(=O)CC(C)C)C3)C[C@H]2C1 (stereo not given in full) | 
26 |  | 7.14 | Cc1ncnc(C)c1C(=O)N1C[C@H]2CN(CCC(c3ccccc3)C3CCN(C(=O)C(C)C)CC3)C[C@H]2C1 (stereo not given in full) | 
27 |  | < 6.30 | Cc1ncnc(C)c1C(=O)N1C[C@H]2CN(CCC(c3cccc(F)c3)C3CCN(S(C)(=O)=O)CC3)C[C@H]2C1 (stereo in doubt; 44) | 
28 |  | 7.49 | CCC(=O)N1CCC(C(CCN2C[C@@H]3CN(C(=O)c4c(C)ncnc4C)C[C@@H]3C2)c2ccccc2)CC1 (stereo not given in full) | 
29 |  | < 6.30 | Cc1ncnc(C)c1C(=O)N1C[C@H]2CN(CCC(c3ccccc3)C3CCN(C(=O)NC(C)C)CC3)C[C@H]2C1 (stereo not given in full) | 
30 | 7.80 | 7.36 | Cc1ncnc(C)c1C(=O)N1C[C@H]2CN(CCC(c3cccc(F)c3)C3CCN(S(C)(=O)=O)CC3)C[C@H]2C1 (stereo in doubt; 35) | 
31 |  | 7.47 | Cc1ncnc(C)c1C(=O)N1C[C@H]2CN(CCC(c3ccccc3)C3CCN(S(C)(=O)=O)CC3)C[C@H]2C1 (stereo in doubt; 34) | pIC50 [1]: 7.37; Papp A→B [6]: 0.87 ×10⁻⁶ cm/s
32 | 7.70 | 7.60 | Cc1ncnc(C)c1C(=O)N1C[C@H]2CN(CCC(c3cc(F)cc(F)c3)C3CCN(CC(F)F)CC3)C[C@H]2C1 (stereo not given in full) | 

— ChEMBL document CHEMBL1268886, “Evaluation of amide replacements in CCR5 antagonists as a means to increase intrinsic permeability. Part 2: SAR optimization and pharmacokinetic profile of a homologous azacyle series” (Bioorg Med Chem Lett, 2010)
